Measurements published in US8143290B2, “Chemical compounds 572” (AstraZeneca AB, priority 2006, dated 2012).
Structures can show the parent of a compound that is named as a salt.

These compounds were tested against T1, recombinant human GR (Homo sapiens, UniProt P04150) (assay: Human Glucocorticoid Receptor (GR) Assay, fluorescence polarization). Conditions: GS Red tracer, incubated 2 h at r.t., XLfit model 205, read-out: GRhuFL_FP_v2 Mean IC50.
T1 construct: purchased Panvera/Invitrogen P2812 (kit P2893)
T1 sequence (P04150 1-777): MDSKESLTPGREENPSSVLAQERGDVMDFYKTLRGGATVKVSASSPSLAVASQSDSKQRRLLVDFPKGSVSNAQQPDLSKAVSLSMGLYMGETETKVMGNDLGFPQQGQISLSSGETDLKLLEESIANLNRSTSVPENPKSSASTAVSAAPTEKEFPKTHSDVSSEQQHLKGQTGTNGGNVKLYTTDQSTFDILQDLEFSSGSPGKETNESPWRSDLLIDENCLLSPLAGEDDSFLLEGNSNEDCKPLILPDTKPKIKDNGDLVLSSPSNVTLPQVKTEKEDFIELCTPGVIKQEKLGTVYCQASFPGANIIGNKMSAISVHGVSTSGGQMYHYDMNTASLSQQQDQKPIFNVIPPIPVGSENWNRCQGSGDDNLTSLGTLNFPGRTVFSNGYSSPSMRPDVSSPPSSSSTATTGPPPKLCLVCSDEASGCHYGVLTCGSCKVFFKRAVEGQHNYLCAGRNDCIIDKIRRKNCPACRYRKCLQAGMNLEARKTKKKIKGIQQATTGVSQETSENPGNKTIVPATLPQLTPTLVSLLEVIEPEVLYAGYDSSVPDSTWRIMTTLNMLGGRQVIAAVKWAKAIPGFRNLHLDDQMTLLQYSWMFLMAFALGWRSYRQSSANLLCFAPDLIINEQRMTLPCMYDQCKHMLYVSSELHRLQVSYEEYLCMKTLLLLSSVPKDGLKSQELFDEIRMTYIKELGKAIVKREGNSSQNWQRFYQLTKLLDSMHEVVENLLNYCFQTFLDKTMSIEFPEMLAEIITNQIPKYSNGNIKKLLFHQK
Format: binding
Procedure, shortened: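 After 2 h dark incubation at r.t., polarization reported displacement of the GS Red tracer from recombinant GR, in buffer with phosphate, molybdate, EDTA, DTT and Stabilizing Peptide. Controls: dexamethasone (100%) and DMSO (0%).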

Structure (SMILES)	IC50
COc1cccc([C@@H](Oc2ccc3c(cnn3-c3ccc(F)cc3)c2)[C@H](C)NC(=O)c2sc(C(F)(F)F)cc2O)c1 [Example 298, N-[(1R,2S)-1-[1-(4-fluorophenyl)indazol-5-yl]oxy-1-(3-methoxyphenyl)propan-2-yl]-3-hydroxy-5-(trifluoromethyl)thiophene-2-carboxamide]	15 nM
COCc1ccc(C(=O)N[C@@H](C)[C@H](Oc2ccc3c(cnn3-c3ccc(F)cc3)c2)c2cccc(OC)c2)s1 [Example 299, N-[(1R,2S)-1-[1-(4-fluorophenyl)indazol-5-yl]oxy-1-(3-methoxyphenyl)propan-2-yl]-5-(methoxymethyl)thiophene-2-carboxamide]	3.1 nM
C[C@H](NC(=O)C(C)(C)C)[C@H](Oc1ccc2c(cnn2-c2ccc(F)cc2)c1)c1ccccc1Cl [Example 300, N-((1R,2S)-1-(2-chlorophenyl)-1-(1-(4-fluorophenyl)-1H-indazol-5-yloxy)propan-2-yl)pivalamide]	2.4 nM
C[C@H](NC(=O)C(F)(F)F)[C@@H](COc1ccc(F)cc1F)Oc1ccc2c(cnn2-c2ccc(F)cc2)c1 [Example 305, N-((2S,3S)-4-(2,4-difluorophenoxy)-3-(1-(4-fluorophenyl)-1H-indazol-5-yloxy)butan-2-yl)-2,2,2-trifluoroacetamide]	8.3 nM
C[C@H](NC(=O)C(F)(F)F)[C@H](Oc1ccc2c(cnn2-c2ccc(F)cc2)c1)c1ccc2c(c1)OCC2 [Example 307, N-((1R,2S)-1-(2,3-dihydrobenzofuran-6-yl)-1-(1-(4-fluorophenyl)-1H-indazol-5-yloxy)propan-2-yl)-2,2,2-trifluoroacetamide]	4.8 nM
COc1cc([C@@H](Oc2ccc3c(cnn3-c3ccc(F)cc3)c2)[C@H](C)NC(=O)C(F)(F)F)ccc1SC [Example 308, 2,2,2-trifluoro-N-((1R,2S)-1-(1-(4-fluorophenyl)-1H-indazol-5-yloxy)-1-(3-methoxy-4-(methylthio)phenyl)propan-2-yl)acetamide]	6.9 nM

The remaining lines, values ahead:

IC50	Structure (SMILES)
5.2 nM	COc1cccc([C@@H](Oc2ccc3c(cnn3-c3ccc(F)cc3)c2)[C@H](C)NC(=O)C2CCN(C(=O)OC(C)(C)C)C2)c1 (stereo partly drawn) [Example 301, tert-butyl 3-((1R,2S)-1-(1-(4-fluorophenyl)-1H-indazol-5-yloxy)-1-(3-methoxyphenyl)propan-2-ylcarbamoyl)pyrrolidine-1-carboxylate]
3.2 nM	COc1cccc([C@@H](Oc2ccc3c(cnn3-c3ccc(F)cc3)c2)[C@H](C)NC(=O)C(C)(F)F)c1 [Example 302, 2,2-difluoro-N-((1R,2S)-1-(1-(4-fluorophenyl)-1H-indazol-5-yloxy)-1-(3-methoxyphenyl)propan-2-yl)propanamide]
5 nM	COc1cccc([C@@H](Oc2ccc3c(cnn3-c3ccc(F)cc3)c2)[C@H](C)NC(=O)[C@@H](C)N)c1 [Example 303, (R)-2-amino-N-((1R,2S)-1-(1-(4-fluorophenyl)-1H-indazol-5-yloxy)-1-(3-methoxyphenyl)propan-2-yl)propanamide trifluoroacetic acid salt]
7.5 nM	COc1cccc([C@@H](Oc2ccc3c(cnn3-c3ccc(F)cc3)c2)[C@H](C)NC(=O)[C@H]2CCCN2)c1 [Example 304, (R)-N-((1R,2S)-1-(1-(4-fluorophenyl)-1H-indazol-5-yloxy)-1-(3-methoxyphenyl)propan-2-yl)pyrrolidine-2-carboxamide trifluoroacetic acid salt]
